ChEMBL document CHEMBL1201862, “PubChem BioAssay data set” (2004)
Active and inactive are the calls of the source.

What was measured:
[1] = target: T1, Acyl-homoserine lactone acylase PvdQ (Pseudomonas aeruginosa (strain LESB58), UniProt Q9I194); assay: P. aeruginosa PvdQ acylase inhibitors, dose response, biochemical, fluorescence, plate reader and imaging, cherry-picks (AID 493231)
T1 sequence (Q9I194 whole entry): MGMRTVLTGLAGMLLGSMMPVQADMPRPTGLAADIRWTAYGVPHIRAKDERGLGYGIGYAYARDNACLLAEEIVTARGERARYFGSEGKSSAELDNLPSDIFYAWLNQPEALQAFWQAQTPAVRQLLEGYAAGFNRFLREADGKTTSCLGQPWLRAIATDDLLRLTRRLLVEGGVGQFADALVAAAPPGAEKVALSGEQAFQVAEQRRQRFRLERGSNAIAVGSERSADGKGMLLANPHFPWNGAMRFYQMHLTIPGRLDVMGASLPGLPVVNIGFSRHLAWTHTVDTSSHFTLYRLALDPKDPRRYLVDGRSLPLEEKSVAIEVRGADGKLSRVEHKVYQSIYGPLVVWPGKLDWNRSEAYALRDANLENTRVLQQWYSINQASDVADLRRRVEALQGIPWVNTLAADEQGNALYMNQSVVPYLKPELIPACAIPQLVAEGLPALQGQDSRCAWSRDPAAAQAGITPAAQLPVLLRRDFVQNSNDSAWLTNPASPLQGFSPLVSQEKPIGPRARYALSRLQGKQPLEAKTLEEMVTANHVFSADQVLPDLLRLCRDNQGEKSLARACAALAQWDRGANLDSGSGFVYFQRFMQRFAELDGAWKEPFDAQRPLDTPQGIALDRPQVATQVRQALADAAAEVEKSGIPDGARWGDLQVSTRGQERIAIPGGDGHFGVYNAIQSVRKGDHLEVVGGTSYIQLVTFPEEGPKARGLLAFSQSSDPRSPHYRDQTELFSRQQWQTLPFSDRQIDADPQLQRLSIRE

[2] = target: Eukaryotic translation initiation factor 4E (Mus musculus, UniProt P63073); assay: eIF4E–eIF4G protein interaction inhibitors, dose response, biochemical, TR-FRET (AID 855); type: functional;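 further: potency for disrupting eIF4E binding to eIF4GI seen as loss of FRET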
Eukaryotic translation initiation factor 4E, sequence (P63073 whole entry): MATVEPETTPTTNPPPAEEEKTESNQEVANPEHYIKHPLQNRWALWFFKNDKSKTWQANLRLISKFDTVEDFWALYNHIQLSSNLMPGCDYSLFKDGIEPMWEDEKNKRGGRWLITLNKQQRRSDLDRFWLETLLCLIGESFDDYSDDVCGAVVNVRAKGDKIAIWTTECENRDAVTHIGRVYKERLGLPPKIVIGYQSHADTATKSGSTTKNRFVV

[3] = target: Peroxisome proliferator-activated receptor gamma/Nuclear receptor corepressor 2 (Homo sapiens, UniProt P37231+Q9Y618); type: functional
Peroxisome proliferator-activated receptor gamma/Nuclear receptor corepressor 2, sequence (P37231 whole entry): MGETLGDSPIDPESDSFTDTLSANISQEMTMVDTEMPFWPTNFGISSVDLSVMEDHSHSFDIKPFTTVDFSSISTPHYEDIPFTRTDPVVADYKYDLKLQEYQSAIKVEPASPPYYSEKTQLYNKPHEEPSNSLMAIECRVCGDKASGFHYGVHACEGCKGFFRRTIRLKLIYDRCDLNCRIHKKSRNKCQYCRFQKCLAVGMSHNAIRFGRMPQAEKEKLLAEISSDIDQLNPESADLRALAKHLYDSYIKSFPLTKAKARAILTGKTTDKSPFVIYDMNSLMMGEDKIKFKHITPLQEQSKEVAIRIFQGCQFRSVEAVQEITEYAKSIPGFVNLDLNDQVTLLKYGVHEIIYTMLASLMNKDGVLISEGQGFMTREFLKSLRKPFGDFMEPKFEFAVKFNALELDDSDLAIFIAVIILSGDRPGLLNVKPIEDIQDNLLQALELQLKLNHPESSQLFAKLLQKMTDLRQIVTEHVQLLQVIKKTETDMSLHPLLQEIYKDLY
Peroxisome proliferator-activated receptor gamma/Nuclear receptor corepressor 2, sequence (Q9Y618 whole entry): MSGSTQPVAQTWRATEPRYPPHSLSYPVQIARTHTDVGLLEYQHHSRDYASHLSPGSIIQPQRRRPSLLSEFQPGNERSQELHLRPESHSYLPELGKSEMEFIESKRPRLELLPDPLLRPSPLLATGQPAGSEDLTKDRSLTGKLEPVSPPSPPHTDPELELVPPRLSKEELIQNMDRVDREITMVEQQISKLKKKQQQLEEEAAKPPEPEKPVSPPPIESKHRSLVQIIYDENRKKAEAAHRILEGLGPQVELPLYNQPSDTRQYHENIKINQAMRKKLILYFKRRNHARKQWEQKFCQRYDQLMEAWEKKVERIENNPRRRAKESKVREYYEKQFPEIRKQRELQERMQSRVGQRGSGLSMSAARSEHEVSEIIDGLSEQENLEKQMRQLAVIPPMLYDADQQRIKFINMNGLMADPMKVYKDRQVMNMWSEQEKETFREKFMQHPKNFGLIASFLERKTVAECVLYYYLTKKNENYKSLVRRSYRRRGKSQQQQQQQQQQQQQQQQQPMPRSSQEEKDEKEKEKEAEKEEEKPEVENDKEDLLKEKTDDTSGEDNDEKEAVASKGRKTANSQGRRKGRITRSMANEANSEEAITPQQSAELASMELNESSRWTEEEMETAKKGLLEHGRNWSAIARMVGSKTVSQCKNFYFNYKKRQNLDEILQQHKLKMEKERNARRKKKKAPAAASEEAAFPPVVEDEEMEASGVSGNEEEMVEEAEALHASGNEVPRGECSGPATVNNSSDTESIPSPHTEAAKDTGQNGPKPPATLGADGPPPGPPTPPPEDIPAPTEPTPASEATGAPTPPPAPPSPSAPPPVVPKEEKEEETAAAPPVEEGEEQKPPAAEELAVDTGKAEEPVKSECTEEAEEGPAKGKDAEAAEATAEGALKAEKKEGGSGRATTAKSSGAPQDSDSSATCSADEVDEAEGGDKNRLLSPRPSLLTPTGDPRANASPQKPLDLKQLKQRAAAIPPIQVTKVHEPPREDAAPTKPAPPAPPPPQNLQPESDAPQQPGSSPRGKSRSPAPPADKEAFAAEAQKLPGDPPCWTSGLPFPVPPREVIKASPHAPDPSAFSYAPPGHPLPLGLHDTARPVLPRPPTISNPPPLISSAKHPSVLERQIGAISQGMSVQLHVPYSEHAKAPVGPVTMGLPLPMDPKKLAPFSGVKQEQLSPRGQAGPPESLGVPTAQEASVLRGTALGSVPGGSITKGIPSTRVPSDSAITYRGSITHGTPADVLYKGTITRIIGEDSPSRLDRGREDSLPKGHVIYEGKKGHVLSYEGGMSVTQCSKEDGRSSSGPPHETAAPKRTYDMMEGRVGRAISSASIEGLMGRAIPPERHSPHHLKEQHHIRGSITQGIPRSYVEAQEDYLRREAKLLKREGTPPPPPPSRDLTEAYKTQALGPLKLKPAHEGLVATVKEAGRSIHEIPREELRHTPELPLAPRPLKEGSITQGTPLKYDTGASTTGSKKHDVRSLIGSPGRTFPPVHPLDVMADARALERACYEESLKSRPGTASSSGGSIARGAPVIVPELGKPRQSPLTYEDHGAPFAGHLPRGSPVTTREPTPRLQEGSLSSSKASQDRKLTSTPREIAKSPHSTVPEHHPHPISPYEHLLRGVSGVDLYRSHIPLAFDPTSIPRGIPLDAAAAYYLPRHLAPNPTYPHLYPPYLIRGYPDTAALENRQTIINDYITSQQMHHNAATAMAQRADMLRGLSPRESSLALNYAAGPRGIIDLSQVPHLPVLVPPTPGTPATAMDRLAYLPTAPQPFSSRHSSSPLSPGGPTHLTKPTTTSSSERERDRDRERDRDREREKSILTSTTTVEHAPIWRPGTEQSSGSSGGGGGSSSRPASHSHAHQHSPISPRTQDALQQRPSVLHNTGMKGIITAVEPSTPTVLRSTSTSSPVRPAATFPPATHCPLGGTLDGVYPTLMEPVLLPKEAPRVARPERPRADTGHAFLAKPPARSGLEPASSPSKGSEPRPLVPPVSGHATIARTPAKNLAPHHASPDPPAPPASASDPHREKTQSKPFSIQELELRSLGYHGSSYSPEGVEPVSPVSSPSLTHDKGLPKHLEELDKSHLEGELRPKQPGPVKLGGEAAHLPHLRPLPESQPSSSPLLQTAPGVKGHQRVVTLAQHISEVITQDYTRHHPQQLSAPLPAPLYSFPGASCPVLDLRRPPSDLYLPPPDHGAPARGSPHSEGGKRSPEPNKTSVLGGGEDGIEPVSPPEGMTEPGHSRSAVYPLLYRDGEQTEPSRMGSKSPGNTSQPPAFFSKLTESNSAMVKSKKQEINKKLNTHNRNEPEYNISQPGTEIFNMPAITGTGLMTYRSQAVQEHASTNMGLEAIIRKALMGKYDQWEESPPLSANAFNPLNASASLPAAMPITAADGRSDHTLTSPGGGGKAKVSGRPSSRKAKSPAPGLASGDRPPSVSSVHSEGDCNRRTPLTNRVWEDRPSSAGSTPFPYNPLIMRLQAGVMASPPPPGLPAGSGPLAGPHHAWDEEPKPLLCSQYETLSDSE

Ephrin type-A receptor 4 = Ephrin type-A receptor 4 (Mus musculus, UniProt Q03137); assay: inhibitors of EphA4 binding to KYL peptide, primary screen, biochemical, colorimetric, mouse EphA4 (AID 689); type: functional
Ephrin type-A receptor 4, sequence (Q03137 whole entry): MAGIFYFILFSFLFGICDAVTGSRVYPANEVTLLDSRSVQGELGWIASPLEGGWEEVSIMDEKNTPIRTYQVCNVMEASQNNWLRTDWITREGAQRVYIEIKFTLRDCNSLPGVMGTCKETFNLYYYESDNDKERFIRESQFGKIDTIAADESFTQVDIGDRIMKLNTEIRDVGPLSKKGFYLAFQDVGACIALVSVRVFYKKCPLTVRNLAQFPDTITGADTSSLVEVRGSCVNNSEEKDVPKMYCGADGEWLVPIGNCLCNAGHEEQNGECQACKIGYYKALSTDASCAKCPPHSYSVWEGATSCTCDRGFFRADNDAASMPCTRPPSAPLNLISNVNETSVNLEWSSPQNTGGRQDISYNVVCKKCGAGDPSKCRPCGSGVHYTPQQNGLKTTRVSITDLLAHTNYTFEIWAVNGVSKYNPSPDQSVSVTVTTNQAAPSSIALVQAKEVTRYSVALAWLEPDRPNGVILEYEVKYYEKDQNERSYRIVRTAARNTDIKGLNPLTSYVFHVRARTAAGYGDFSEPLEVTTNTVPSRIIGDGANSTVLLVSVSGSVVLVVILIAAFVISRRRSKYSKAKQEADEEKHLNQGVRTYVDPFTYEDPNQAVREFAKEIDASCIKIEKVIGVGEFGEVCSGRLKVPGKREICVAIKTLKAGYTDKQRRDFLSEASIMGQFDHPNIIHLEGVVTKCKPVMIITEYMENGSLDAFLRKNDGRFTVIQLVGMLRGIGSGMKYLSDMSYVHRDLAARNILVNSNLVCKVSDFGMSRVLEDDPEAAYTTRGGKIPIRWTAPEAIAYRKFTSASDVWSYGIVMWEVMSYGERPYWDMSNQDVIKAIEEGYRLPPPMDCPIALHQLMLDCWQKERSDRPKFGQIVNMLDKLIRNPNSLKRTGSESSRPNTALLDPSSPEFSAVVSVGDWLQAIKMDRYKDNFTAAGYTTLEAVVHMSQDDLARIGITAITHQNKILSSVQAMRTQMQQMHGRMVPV

[4] = target: Photoreceptor-specific nuclear receptor (Homo sapiens, UniProt Q9Y5X4); type: functional;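 further: potency for compounds that break the NR2E3 corepressor complex and count as activators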
Photoreceptor-specific nuclear receptor, sequence (Q9Y5X4 whole entry): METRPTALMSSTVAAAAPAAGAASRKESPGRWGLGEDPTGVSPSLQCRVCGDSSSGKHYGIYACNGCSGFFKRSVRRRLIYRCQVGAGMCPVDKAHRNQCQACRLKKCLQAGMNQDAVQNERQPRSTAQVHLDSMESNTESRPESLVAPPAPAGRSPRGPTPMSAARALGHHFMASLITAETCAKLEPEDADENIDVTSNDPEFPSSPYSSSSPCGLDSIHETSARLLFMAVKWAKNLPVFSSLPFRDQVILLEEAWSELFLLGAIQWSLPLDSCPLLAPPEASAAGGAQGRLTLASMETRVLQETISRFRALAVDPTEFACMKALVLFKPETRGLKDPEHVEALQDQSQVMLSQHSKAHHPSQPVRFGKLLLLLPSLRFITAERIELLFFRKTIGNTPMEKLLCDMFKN

[5] = target: T2, Replicative DNA helicase DnaB (Mycobacterium tuberculosis, UniProt P9WMR3); assay: DnaB intein splicing inhibitors, dose response, biochemical, cell-free fluorescence (AID 449749); type: functional
T2 sequence (P9WMR3 whole entry): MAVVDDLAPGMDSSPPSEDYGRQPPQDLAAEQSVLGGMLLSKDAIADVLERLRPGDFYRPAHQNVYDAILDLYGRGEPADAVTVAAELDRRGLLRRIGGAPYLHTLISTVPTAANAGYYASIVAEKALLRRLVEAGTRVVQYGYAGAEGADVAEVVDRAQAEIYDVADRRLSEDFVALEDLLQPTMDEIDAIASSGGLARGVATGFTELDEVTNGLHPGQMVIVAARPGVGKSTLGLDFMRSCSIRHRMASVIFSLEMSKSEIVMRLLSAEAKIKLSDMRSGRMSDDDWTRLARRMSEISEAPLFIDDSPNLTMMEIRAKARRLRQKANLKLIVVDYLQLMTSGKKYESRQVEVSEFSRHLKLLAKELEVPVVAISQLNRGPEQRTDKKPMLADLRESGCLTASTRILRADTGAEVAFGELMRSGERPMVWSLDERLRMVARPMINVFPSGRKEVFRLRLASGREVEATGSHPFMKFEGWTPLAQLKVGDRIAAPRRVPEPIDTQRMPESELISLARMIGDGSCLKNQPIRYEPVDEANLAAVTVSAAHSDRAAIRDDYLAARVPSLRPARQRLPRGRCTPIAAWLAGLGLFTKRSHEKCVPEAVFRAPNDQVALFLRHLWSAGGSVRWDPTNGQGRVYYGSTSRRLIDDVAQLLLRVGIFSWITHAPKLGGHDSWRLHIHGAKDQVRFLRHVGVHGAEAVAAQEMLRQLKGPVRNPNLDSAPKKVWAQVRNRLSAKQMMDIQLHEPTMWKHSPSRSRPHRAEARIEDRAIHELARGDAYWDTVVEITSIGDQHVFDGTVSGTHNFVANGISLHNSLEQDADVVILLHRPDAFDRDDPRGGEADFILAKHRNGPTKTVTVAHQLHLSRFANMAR

Protein RecA = target: T3, Protein RecA (Mycobacterium tuberculosis, UniProt P9WHJ3); assay: Fluorescence Cell-Free Homogeneous Dose Retest to Identify Inhibitors of RecA-Intein Splicing Activity. [Related pubchem assays (depositor defined):AID2097, AID2223, AID489010, AID492950]; type: functional
T3 sequence (P9WHJ3 whole entry): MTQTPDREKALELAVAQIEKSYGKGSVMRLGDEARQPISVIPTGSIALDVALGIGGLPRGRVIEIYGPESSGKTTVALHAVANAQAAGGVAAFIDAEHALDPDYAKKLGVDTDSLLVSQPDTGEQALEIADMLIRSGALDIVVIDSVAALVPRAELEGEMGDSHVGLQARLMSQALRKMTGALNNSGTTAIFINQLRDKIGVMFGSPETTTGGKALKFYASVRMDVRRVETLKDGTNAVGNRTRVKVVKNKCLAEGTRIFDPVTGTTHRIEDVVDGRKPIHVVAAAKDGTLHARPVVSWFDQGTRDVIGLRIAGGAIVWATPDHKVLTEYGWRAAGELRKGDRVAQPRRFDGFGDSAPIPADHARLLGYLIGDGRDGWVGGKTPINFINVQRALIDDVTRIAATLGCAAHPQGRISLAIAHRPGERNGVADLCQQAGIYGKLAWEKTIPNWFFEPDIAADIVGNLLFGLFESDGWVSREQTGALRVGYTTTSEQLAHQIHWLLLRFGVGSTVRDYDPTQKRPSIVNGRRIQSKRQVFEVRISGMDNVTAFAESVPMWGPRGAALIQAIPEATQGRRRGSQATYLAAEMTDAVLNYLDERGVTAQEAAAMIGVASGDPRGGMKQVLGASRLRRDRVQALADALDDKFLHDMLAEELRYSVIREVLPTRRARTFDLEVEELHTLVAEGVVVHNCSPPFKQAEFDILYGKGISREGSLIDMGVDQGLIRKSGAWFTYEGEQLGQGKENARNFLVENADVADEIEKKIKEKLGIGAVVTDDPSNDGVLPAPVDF

[6] = cytotoxicity in HEK-293T cells, dose response, cytotoxicity control for BCR NF-kB inhibitor project, luminescence, B-cell screen hits (AID 489021); type: functional, cell-based;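 further: HEK-293T cells carrying an NF-kB luciferase reporter; cells exposed to compound for about 14 hours before viability readout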
[7] = target: T4, Carboxy-terminal domain RNA polymerase II polypeptide A small phosphatase 1 (Homo sapiens, UniProt Q9GZU7); assay: inhibitors of CTDSP1, concentration-response testing, biochemical assay, absorbance-based, actives from ultra-high-throughput screening (AID 540297); type: functional
T4 sequence (Q9GZU7 whole entry): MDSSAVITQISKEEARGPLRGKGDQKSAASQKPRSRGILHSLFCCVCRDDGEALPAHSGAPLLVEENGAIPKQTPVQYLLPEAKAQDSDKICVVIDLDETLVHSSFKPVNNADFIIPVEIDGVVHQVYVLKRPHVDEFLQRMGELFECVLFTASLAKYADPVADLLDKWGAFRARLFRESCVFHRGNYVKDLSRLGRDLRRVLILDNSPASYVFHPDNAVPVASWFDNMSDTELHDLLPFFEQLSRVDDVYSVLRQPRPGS

[8] = target: T5, Orexin/Hypocretin receptor type 1 (Homo sapiens, UniProt O43613); assay: Homogeneous Time Resolved Fluorescence (HTRF)-based cell-based high throughput dose response assay for antagonists of the orexin 1 receptor (OX1R; HCRTR1). [Related pubchem assays (depositor defined):AID434989, AID435008, AID463079, AID485270, AID492963, AID492964, AID492965, AID493232, AID504717, AID504718]; type: functional
T5 sequence (O43613 whole entry): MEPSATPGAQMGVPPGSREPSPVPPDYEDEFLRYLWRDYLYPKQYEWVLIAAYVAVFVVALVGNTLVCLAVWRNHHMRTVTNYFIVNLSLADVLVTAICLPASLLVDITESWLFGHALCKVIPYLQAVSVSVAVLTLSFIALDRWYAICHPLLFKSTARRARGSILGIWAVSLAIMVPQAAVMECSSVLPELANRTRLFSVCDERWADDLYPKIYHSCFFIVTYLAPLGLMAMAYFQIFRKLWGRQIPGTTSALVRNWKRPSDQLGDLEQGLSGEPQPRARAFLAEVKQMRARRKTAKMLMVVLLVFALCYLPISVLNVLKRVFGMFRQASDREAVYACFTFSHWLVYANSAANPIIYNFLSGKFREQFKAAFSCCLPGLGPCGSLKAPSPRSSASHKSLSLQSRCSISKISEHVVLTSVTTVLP

[9] = target: T6, Heat shock factor protein 1 (Mus musculus, UniProt P38532); assay: inhibition of MG132-induced HSE-luciferase signal, confirmation, cell-based, NIH3T3, luminescence, dose retest (AID 2382); type: functional;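 further: NIH3T3 fibroblasts with HSF1-driven luciferase reporter stressed by proteasome inhibitor MG132; luminescence from HSF1-driven luciferase expression after 8 hours of MG132 stress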
T6 sequence (P38532 whole entry): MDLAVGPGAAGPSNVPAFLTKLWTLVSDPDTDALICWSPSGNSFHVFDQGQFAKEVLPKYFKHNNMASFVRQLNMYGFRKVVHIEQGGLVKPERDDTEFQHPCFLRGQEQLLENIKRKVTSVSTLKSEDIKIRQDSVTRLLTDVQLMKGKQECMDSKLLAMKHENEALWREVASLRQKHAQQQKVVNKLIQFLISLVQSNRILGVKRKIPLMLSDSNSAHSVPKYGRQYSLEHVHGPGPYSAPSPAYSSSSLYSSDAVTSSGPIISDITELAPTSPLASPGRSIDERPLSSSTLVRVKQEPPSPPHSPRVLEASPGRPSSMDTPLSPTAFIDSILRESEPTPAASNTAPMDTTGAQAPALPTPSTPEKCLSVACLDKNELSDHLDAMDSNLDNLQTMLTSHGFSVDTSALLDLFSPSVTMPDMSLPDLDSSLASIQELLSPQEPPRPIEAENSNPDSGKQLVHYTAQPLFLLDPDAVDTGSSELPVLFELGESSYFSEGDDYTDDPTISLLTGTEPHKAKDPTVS

CHO-K1 = assay: (§1) Counterscreen for antagonists of the orexin 1 receptor (OX1R; HCRTR1): Homogeneous time resolved fluorescence (HTRF)-based cell-based dose response assay to identify antagonists of the parental CHO-K1 cell line. [Related pubchem assays (depositor defined):AID434989, AID435008, AID463079, AID485270, AID492963, AID492964, AID492965, AID493232, AID504699, AID504701]; type: functional; settings: Cricetulus griseus
[10] = as §1, with “Fluorescence-based” for “Homogeneous time resolved fluorescence (HTRF)-based”, “cell-based high throughput” for “cell-based”, “CHO” for “CHO-K1”; type: functional
[11] = target: T5, Orexin/Hypocretin receptor type 1; assay: Fluorescence-based cell-based high throughput dose response assay for antagonists of the orexin 1 receptor (OX1R; HCRTR1). [Related pubchem assays (depositor defined):AID434989, AID435008, AID463079, AID485270, AID492963, AID492964, AID492965, AID493232, AID504717, AID504718]; type: functional
Hexokinase = target: T7, Hexokinase (Trypanosoma brucei, UniProt Q38C41); assay: Confirmation assay for inhibitors of Trypanosoma brucei hexokinase 1-Analogue-first series. [Related pubchem assays (depositor defined):AID1430, AID1632, AID2516, AID2560, AID2579, AID2600, AID449725, AID492951]; type: functional
T7 sequence (Q38C41 whole entry): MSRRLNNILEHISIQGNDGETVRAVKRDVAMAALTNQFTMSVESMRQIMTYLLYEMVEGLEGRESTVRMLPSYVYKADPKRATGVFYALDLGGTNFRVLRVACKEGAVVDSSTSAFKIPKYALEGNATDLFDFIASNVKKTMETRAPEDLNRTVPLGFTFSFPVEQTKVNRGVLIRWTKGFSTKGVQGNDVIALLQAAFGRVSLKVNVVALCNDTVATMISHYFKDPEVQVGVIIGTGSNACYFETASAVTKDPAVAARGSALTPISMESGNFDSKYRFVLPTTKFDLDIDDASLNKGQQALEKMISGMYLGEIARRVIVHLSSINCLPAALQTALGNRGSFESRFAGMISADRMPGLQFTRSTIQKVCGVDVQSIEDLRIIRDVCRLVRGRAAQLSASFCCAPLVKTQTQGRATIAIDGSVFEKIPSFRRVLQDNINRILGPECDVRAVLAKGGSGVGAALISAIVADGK

In the case of `CCOC(=O)CCCn1ncn2c(cc3occc32)c1=O`, the AC50 [1] is reported as 12 µM (active).

For `COC(=O)Sc1nnc(-c2ccc(Br)cc2)o1`, the IC50 [2] was 30.7 µM (active), the IC50 [3] was 3.53 µM (active) and the IC50 (Ephrin type-A receptor 4) was 13 µM (active). The IC50 [4] was > 39.8 µM (not active).

For `COc1cc(-c2[nH]nc3c2C(c2ccco2)C(C#N)=C(N)O3)cc(OC)c1OC` (stereo not given), the AC50 [5] was 6.62 µM (active), the EC50 (Protein RecA) was 0.531 µM (active) and the IC50 [6] was > 80 µM (inactive).

In the case of `Cc1ccc(-n2nc(-c3ccco3)cc2C(=O)O)c(C)c1`, the IC50 [7] is reported as 4.94 µM (active) and the IC50 [2] is reported as 50 µM (inactive).

For `O=S(=O)(Nc1c(O)ccc2ccccc12)c1cccc2ccccc12`, the IC50 [8] was 2.85 µM (active), the AC50 [5] was 4.4 µM (active) and the EC50 [9] was 15.7 µM (active). For the same compound, the IC50 (CHO-K1) was 56.9 µM (inactive), the EC50 (Protein RecA) was 1.77 µM (active) and the IC50 [10] was 39.2 µM (inactive). For the same compound, the IC50 [11] was 13.1 µM (inactive).

For `CC(C)(C)c1ccc(C(=O)Nc2c(C(=O)O)ccc(Cl)c2Cl)cc1`, the IC50 (Hexokinase) was > 25 µM (inactive).

For `CC(C)Cc1ccc(C(=O)Nc2cc(Cl)ccc2C(=O)O)cc1`, the IC50 (Hexokinase) was 7.25 µM (active).

With `O=C(Nc1cc(Cl)ccc1C(=O)O)c1ccoc1` the IC50 (Hexokinase) was > 25 µM (inactive).

In the case of `O=C1NCC(c2ccccc2)C1C(=O)N/N=C\c1ccc(-c2cccc(Cl)c2Cl)o1` (stereo not given), the IC50 [8] is reported as 0.648 µM (active), the IC50 (CHO-K1) is reported as > 66.2 µM (inactive) and the IC50 [10] is reported as 24.7 µM (inactive). The IC50 [11] was 2.32 µM (active).

In the case of `COc1ccccc1/C=C1\SC(=S)N(CCC(=O)Nc2cccc(O)c2)C1=O`, the IC50 [6] is reported as 60.6 µM (inactive).
